Experimental data from patent EP2285386B1, “Use of ribose in the treatment of restless legs syndrome” (RiboCor, Inc., priority 2008, dated 2009).
Where two headings read alike, the source gives them in different places.

Key:
[1] = human, in vivo, iv, cited from earlier work
[2] = system: two familial males with RLS; test: Restless Legs Syndrome case study: oral D-ribose at three dosing regimens, symptom diary; assay type: in vivo, human; details: three weeks
Excerpt: We present a report on two familial males with RLS in which the supplementation of D-ribose produced a benefit in lessening the occurrence and severity of their daily symptoms. Both affected male individuals were from a positive family prevalence, three generations carrying the diagnosis of RLS. These males involved the latter two generations, parent and child, respectively. Both men had no underlying medical conditions. Their symptoms of RLS date back for decades and presently have progressed to the moderate to severe discomfort stage, mainly experienced during sedentary periods throughout the day with exacerbation of symptoms during nocturnal sleep.
Both individuals were introduced to D-ribose. To evaluate any potential benefits of D-ribose in RLS, each individual orally consumed D-ribose (five grams per dose) daily at different trial dosing regimens. Each trial dosing regimen lasted for three weeks with a two week interval washout between dosing regimens. The initial regimen involved a single dose of oral D- ribose consumed only at breakfast. The second dosing regimen involved consumption of oral D-ribose at breakfast and lunch. In the last dosing regiment, oral D-ribose was taken with all meals, breakfast, lunch and dinner. A diary pertaining to the documentation and severity of RLS symptoms was compiled.
The two week washout period between stages was designed to observe any return or worsening of their symptoms. […] Following completion of all dosing regimens of oral D-ribose and with the final wash out period, both males elected to re-start oral dosing of D-ribose at 5 grams/doses three times a day.

[3] = second regimen: oral, five grams at breakfast and lunch

Question: Which results are given for O=C[C@H](O)[C@H](O)[C@H](O)CO [D-Ribose]?
Answer: D-Ribose levels in the serum ([1]; 60 mg/kg): approximately 25 mg/dl; half-life of D-Ribose in the serum ([1]; 60 mg/kg): 11 min; D-Ribose levels in the serum ([1]; 100 mg/kg): approximately 25 mg/dl; half-life of D-Ribose in the serum ([1]; 100 mg/kg): 16 min; serum level ([1]; 222.2 mg/kg): ≤ 86 mg/dL; serum levels [1]: ≤ 60 mg/dL; energy and fatigue ([2]; initial regimen: oral, five grams single dose at breakfast): general feeling of more energy and less fatigue; leg twitching events and the urge to move during the day [2, 3]: reduced for one of the subjects and rarely present in the other; unpleasant sensations during the night [2, 3]: Both still experienced the unpleasant sensations during the night
